According to patent US20230219921A1, “KCNT1 INHIBITORS AND METHODS OF USE” (Praxis Precision Medicines, Inc., priority 2020, published 2023):

Biological target: T1, KCNT1 (KNa1.1, Slack) (Homo sapiens, UniProt Q5JUK3)
T1 construct: expressed in transfected cells; host or cells: HEK-TREX (tetracycline-inducible HEK cell line)
T1 sequence (Q5JUK3 1-1230): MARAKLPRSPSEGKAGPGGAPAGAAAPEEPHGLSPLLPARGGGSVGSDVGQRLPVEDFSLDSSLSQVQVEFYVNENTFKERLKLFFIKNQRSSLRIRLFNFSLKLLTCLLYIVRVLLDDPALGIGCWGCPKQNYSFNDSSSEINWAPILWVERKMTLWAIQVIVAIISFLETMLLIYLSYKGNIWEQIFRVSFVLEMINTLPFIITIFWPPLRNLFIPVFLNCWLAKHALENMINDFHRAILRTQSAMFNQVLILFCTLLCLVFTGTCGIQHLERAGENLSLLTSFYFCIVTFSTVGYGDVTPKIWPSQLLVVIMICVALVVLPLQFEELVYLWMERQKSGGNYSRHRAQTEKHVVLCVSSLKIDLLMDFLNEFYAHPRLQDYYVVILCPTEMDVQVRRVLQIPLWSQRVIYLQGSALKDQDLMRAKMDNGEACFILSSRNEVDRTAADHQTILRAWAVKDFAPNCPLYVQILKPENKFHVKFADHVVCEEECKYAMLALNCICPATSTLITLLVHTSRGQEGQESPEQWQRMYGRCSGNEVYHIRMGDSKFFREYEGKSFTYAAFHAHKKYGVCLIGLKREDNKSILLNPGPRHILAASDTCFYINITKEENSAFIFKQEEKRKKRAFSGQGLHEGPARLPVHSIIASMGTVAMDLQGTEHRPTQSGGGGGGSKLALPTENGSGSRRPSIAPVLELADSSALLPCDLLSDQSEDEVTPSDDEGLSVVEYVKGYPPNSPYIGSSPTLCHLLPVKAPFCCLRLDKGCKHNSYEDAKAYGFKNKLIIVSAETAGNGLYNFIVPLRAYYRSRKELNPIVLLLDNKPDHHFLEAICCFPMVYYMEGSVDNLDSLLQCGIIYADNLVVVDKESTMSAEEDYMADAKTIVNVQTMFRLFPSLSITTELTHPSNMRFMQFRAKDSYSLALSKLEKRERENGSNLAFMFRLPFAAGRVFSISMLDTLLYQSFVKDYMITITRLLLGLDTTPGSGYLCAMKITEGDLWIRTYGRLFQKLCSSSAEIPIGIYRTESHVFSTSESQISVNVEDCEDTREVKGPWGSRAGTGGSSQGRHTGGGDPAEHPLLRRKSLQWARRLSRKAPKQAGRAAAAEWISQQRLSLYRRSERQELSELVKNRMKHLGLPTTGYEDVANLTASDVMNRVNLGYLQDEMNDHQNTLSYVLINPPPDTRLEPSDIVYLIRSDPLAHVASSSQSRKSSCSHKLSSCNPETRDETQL
Assay: KCNT1 patch clamp assay (SyncroPatch 384PE automated patch clamp)
Assay type: cell-based
Details: tetracycline inducible cell line (HEK-TREX); perforated patch mode; step from -80 mV to 0 mV; room temperature; read-out: KCNT1-WT IC50
Protocol: Inhibition of KCNT1 (KNa1.1, Slack) was evaluated using a tetracycline inducible cell line (HEK-TREX). Currents were recorded using the SyncroPatch 384PE automated, patch clamp system. Pulse generation and data collection were performed with PatchController384 V1.3.0 and DataController384 V1.2.1 (Nanion Technologies). The access resistance and apparent membrane capacitance were estimated using built-in protocols. Current were recorded in perforated patch mode (10 μM escin) from a population of cells. The cells were lifted, triturated, and resuspended at 800,000 cells/ml. The cells were allowed to recover in the cell hotel prior to experimentation. Currents were recorded at room temperature. The external solution contained the following (in mM): NaCl 105, NMDG 40, KCl 4, MgCl2 1, CaCl2 5 and HEPES 10 (pH=7.4, Osmolarity ˜300 mOsm). The extracellular solution was used as the wash, reference and compound delivery solution. The internal solution contained the following (in mM): NaCl 70, KF 70, KCl 10, EGTA 5, HEPES 5 and Escin 0.01 (pH=7.2, Osmolarity ˜295 mOsm). Escin is made at a 5 mM stock in water, aliquoted, and stored at −20° C. The compound plate was created at 2× concentrated in the extracellular solution. The compound was diluted to 1:2 when added to the recording well. The amount of DMSO in the extracellular solution was held constant at the level used for the highest tested concentration. A holding potential of −80 mV with a 100 ms step to 0 mV was used. Mean current was measured during the step to 0 mV. […] The average mean current from 3 sweeps was calculated and the % inhibition of each compound was calculated. The % Inhibition as a function of the compound concentration was fit with a Hill equation to derive IC50, slope, min and max parameters. If KCNT1 inhibition was less than 50% at the highest tested concentration or if an IC50 could not be calculated, then a percent inhibition was reported in place of the IC50.
In this table, “A” indicates IC50 of less than or equal to 1 μM; “B” indicates inhibition of between 1 μM to 20 μM; and “C” indicates inhibition of greater than or equal to 20 μM.

| SMILES | IC50 [nM] |
| --- | --- |
| CNS(=O)(=O)c1ccc(C(=O)NCc2ccc(OC(C)C)cc2)s1 [Compound 27, N-(4-isopropoxybenzyl)-5-(N-methylsulfamoyl)thiophene-2-carboxamide] | ≥ 20000 |
| CNS(=O)(=O)c1ccc(C(=O)NCc2ccc(C#N)cc2)s1 [Compound 17, N-(4-cyanobenzyl)-5-(N-methylsulfamoyl)thiophene-2-carboxamide] | 1000 to 20000 |
| CC(C)Oc1ccc(CNC(=O)c2ccc(S(C)(=O)=O)s2)cc1 [Compound 25, N-(4-isopropoxybenzyl)-5-(methylsulfonyl)thiophene-2-carboxamide] | ≥ 20000 |
| CNS(=O)(=O)c1ccc(C(=O)NCc2ccc(C(C)(C)C#N)cc2)s1 [Compound 38, N-(4-(2-cyanopropan-2-yl)benzyl)-5-(N-methylsulfamoyl)thiophene-2-carboxamide] | 1000 to 20000 |
| CNS(=O)(=O)c1ccc(C(=O)N[C@H](C)c2ccc(Cl)cc2Cl)s1 [Compound 1, (R)—N-(1-(2,4-dichlorophenyl)ethyl)-5-(N-methylsulfamoyl)thiophene-2-carboxamide] | 1000 to 20000 |
| CNS(=O)(=O)c1ccc(C(=O)NCc2ccc(NC(C)C)cc2)s1 [Compound 40, N-(4-(isopropylamino)benzyl)-5-(N-methylsulfamoyl)thiophene-2-carboxamide] | ≥ 20000 |
| CS(=O)(=O)c1ccc(C(=O)NCc2ccc(C(F)(F)F)cc2)s1 [Compound 33, 5-(methylsulfonyl)-N-(4-(trifluoromethyl)benzyl)thiophene-2-carboxamide] | ≤ 1000 |
| CS(=O)(=O)c1ccc(C(=O)NCc2ccc(OCC(F)(F)F)cc2)s1 [Compound 34, 5-(methylsulfonyl)-N-(4-(2,2,2-trifluoroethoxy)benzyl)thiophene-2-carboxamide] | 1000 to 20000 |
| CC(C)Nc1ccc(CNC(=O)c2ccc(S(C)(=O)=O)s2)cc1 [Compound 41, N-(4-(isopropylamino)benzyl)-5-(methylsulfonyl)thiophene-2-carboxamide] | ≥ 20000 |
| CNS(=O)(=O)c1ccc(C(=O)NCc2ccc(Br)cc2)s1 [Compound 21, N-(4-bromobenzyl)-5-(N-methylsulfamoyl)thiophene-2-carboxamide] | ≤ 1000 |
| CC(C)c1ccc(CNC(=O)c2ccc(S(C)(=O)=O)s2)cc1 [Compound 24, N-(4-isopropylbenzyl)-5-(methylsulfonyl)thiophene-2-carboxamide] | ≤ 1000 |
| CC(C)(C#N)c1ccc(CNC(=O)c2ccc(S(C)(=O)=O)s2)cc1 [Compound 39, N-(4-(2-cyanopropan-2-yl)benzyl)-5-(methylsulfonyl)thiophene-2-carboxamide] | 1000 to 20000 |
| CS(=O)(=O)c1ccc(C(=O)NCc2ccc(N3CCCC3)cc2)s1 [Compound 23, 5-(methylsulfonyl)-N-(4-(pyrrolidin-1-yl)benzyl)thiophene-2-carboxamide] | ≥ 20000 |
| CNS(=O)(=O)c1ccc(C(=O)NCc2ccc(Cl)cc2)s1 [Compound 7, N-(4-chlorobenzyl)-5-(N-methylsulfamoyl)thiophene-2-carboxamide] | ≤ 1000 |

The remaining lines, values ahead:

| IC50 [nM] | SMILES |
| --- | --- |
| ≤ 1000 | CNS(=O)(=O)c1ccc(C(=O)NCc2ccc(Cl)cc2O)s1 [Compound 14, N-(4-chloro-2-hydroxybenzyl)-5-(N-methylsulfamoyl)thiophene-2-carboxamide] |
| ≤ 1000 | CC(C)S(=O)(=O)c1ccc(C(=O)NCc2ccc(C(F)(F)F)cc2)s1 [Compound 50, 5-(isopropylsulfonyl)-N-(4-(trifluoromethyl)benzyl)thiophene-2-carboxamide] |
| ≤ 1000 | CNS(=O)(=O)c1ccc(C(=O)NCc2ccc(Cl)cc2Cl)s1 [Compound 3, N-(2,4-dichlorobenzyl)-5-(N-methylsulfamoyl)thiophene-2-carboxamide] |
| ≤ 1000 | Cc1cc(C(F)(F)F)ccc1CNC(=O)c1ccc(S(C)(=O)=O)s1 [Compound 44, N-(2-methyl-4-(trifluoromethyl)benzyl)-5-(methylsulfonyl)thiophene-2-carboxamide] |
| ≤ 1000 | CNS(=O)(=O)c1ccc(C(=O)NCc2cccc(Cl)c2)s1 [Compound 18, N-(3-chlorobenzyl)-5-(N-methylsulfamoyl)thiophene-2-carboxamide] |
| ≤ 1000 | CNS(=O)(=O)c1ccc(C(=O)N[C@H](C)c2ccc(Cl)cc2)s1 [Compound 4, (R)—N-(1-(4-chlorophenyl)ethyl)-5-(N-methylsulfamoyl)thiophene-2-carboxamide] |
| ≤ 1000 | CCS(=O)(=O)c1ccc(C(=O)NCc2ccc(C(F)(F)F)cc2)s1 [Compound 49, 5-(ethylsulfonyl)-N-(4-(trifluoromethyl)benzyl)thiophene-2-carboxamide] |
| ≤ 1000 | CNS(=O)(=O)c1ccc(C(=O)NCc2ccc(Cl)cc2C(F)(F)F)s1 [Compound 8, N-(4-chloro-2-(trifluoromethyl)benzyl)-5-(N-methylsulfamoyl)thiophene-2-carboxamide] |
| ≤ 1000 | CNS(=O)(=O)c1ccc(C(=O)NCc2ccc(C3(C(F)(F)F)CC3)cc2)s1 [Compound 36, 5-(N-methylsulfamoyl)-N-(4-(1-(trifluoromethyl)cyclopropyl)benzyl)thiophene-2-carboxamide] |
| ≤ 1000 | CNS(=O)(=O)c1ccc(C(=O)NCc2ccc(C(F)(F)F)cc2C)s1 [Compound 45, N-(2-methyl-4-(trifluoromethyl)benzyl)-5-(N-methylsulfamoyl)thiophene-2-carboxamide] |
| ≤ 1000 | CNS(=O)(=O)c1ccc(C(=O)NCc2ccc(C(F)(F)F)cc2F)s1 [Compound 43, N-(2-fluoro-4-(trifluoromethyl)benzyl)-5-(N-methylsulfamoyl)thiophene-2-carboxamide] |
| ≤ 1000 | CNS(=O)(=O)c1ccc(C(=O)NCc2ccc(Cl)cc2OC)s1 [Compound 13, N-(4-chloro-2-methoxybenzyl)-5-(N-methylsulfamoyl)thiophene-2-carboxamide] |
| ≤ 1000 | CNS(=O)(=O)c1ccc(C(=O)NCc2ccc(Cl)cc2C2CC2)s1 [Compound 12, N-(4-chloro-2-cyclopropylbenzyl)-5-(N-methylsulfamoyl)thiophene-2-carboxamide] |
| ≤ 1000 | COCCS(=O)(=O)c1ccc(C(=O)NCc2ccc(C(F)(F)F)cc2)s1 [Compound 52, 5-((2-methoxyethyl)sulfonyl)-N-(4-(trifluoromethyl)benzyl)thiophene-2-carboxamide] |
| ≤ 1000 | O=C(NCc1ccc(C(F)(F)F)cc1)c1ccc(S(=O)(=O)C2CC2)s1 [Compound 47, 5-(cyclopropylsulfonyl)-N-(4-(trifluoromethyl)benzyl)thiophene-2-carboxamide] |
| ≤ 1000 | CS(=O)(=O)c1ccc(C(=O)NCc2ccc(C3(C(F)(F)F)CC3)cc2)s1 [Compound 37, 5-(methylsulfonyl)-N-(4-(1-(trifluoromethyl)cyclopropyl)benzyl)thiophene-2-carboxamide] |
